Laboratory results published in paper PMC6967409 (Frontiers in Chemistry, 2020).
Values joined by “and” are separate entries in the source; they are usually repeats but may differ in a detail not shown here. Equal entries are not always repeated. Where two headings read alike, the source gives them in different places.

Key:
[1] = test system: P. berghei ANKA GFP-Luc-SMcon sporozoites; experiment: P. berghei-luciferase liver stage bioluminescence assay (causal prophylactic mode) in HepG2-CD81 cells; assay type: cell-based, Plasmodium berghei; details: for Emax: 48 h, read-out: P.berghei-Luciferase Liver Stage Bioluminescence Assay: Maximum measured (%)
Experimental: (§1) Briefly, HepG2-CD81 cells were seeded into 1,536 well plates containing 50 nL of test and control compounds diluted into DMSO. […] Next, 2 μL of luciferin reagent (Promega BrightGlo) was added to each well and luciferase activity was detected using a Perkin Elmer Envision plate reader. […] In parallel, plates were processed without sporozoites for HepG2 toxicity measurements.
(§2) In continuation of the transmission blocking theme, it is important to establish activities against liver stage parasites. […] This assay uses ultra-high-throughput screening methods optimized for a 1536-well format and a HepG2 human hepatoma cell line. […] To establish selectivity of the compounds for the parasite in the liver stage of infection, cytotoxicity was determined by measuring bioluminescence from the reaction between free ATP of compound-treated, uninfected hepatocytes and a luciferase reporter system.

[2] = HepG2 cytotoxicity bioluminescence assay (CellTiterGlo, ATP); assay type: cell-based, human; details: human, uninfected HepG2-CD81 cells; for IC50 at 72 h: two biological replicates listed in one cell; for EC50 at 72 h: uninfected HepG2, ATP bioluminescence
Experimental: as §1, §2

HepG2 cells = experiment: as above; assay type: cell-based, human; details: for IC50 / HepG2 Cytotoxicity Bioluminescence Assay: Maximum measured (%): two biological replicates listed in one cell
Experimental: as §1, §2

P. falciparum W2 [3] = experiment: T0 [3H]-hypoxanthine drug susceptibility assay; assay type: cell-based; details: Plasmodium falciparum; for IC50: W2, read-out: W2 IC50; for IC90: W2, read-out: W2 IC90
[4] = test system: P. falciparum ARC08-22 (4G); experiment: T0 [3H]-hypoxanthine drug susceptibility assay, artemisinin-resistant clone (C580Y); assay type: cell-based, Plasmodium falciparum; details: preliminary, W2 as comparative sensitive strain
[5] = test system: P. falciparum PL08-009 (5C); experiment: as above; assay type: cell-based, Plasmodium falciparum; details: preliminary, W2 as comparative sensitive strain
P. falciparum NF54 [6] = test system: P. falciparum NF54; design: method as in Coertzen et al. (2018); details: pLDH, 48 h; ref Coertzen et al. (2018); read-out: Metabolic IC50 NF54; cited from earlier work
P. falciparum Dd2 [7] = test system: P. falciparum Dd2; design: method as in Coertzen et al. (2018); details: pLDH, 48 h; ref Coertzen et al. (2018); read-out: Metabolic IC50 Dd2; cited from earlier work
P. falciparum NF54 [8] = test system: P. falciparum NF54; design: method as in Coertzen et al. (2018); details: SYBR Green I; ref Coertzen et al. (2018); read-out: Proliferative IC50 NF54; cited from earlier work
P. falciparum K1 [9] = test system: P. falciparum K1; design: method as in Coertzen et al. (2018); details: SYBR Green I; ref Coertzen et al. (2018); read-out: Proliferative IC50 K1; cited from earlier work
P. falciparum W2 [10] = test system: P. falciparum W2; design: method as in Coertzen et al. (2018); details: SYBR Green I; ref Coertzen et al. (2018); read-out: Proliferative IC50 W2; cited from earlier work
[11] = test system: P. falciparum NF54 early stage gametocytes (>90% stage I–III); design: method as in Coertzen et al. (2018); details: read-out: Early Stage (EG, Luc 48 h) IC50; >90% stage I–III gametocytes; ref Coertzen et al. (2018); cited from earlier work
[12] = test system: P. falciparum NF54 late stage gametocytes (>90% stage IV and V); design: method as in Coertzen et al. (2018); details: read-out: Late Stage (LG, Luc 72 h) IC50; >90% stage IV and V gametocytes; ref Coertzen et al. (2018); cited from earlier work
[13] = test system: Chinese hamster ovarian (CHO) cells; details: cited from earlier work
P. falciparum NF54 [14] = experiment: Metabolic (parasite LDH) assay, asexual ring stage parasites, 48 h; assay type: cell-based; details: Plasmodium falciparum, pLDH, CQ-sensitive NF54
Experimental: (§3) P. falciparum parasites (NF54, K1, and W2) were cultured in vitro in human erythrocytes (A^+ or O^+) under 90% N2, 5% CO2, and 5% O2 atmospheric conditions with supplemented RPMI 1640 media (Sigma Aldrich) containing Albumax II, as previously described (Verlinden et al., [2011]). This study was carried out according the guidelines set out by the Faculty of Health Sciences Ethical Committee, Ethical Clearance no. EC-120821/077. The protocol was approved by the Faculty of Health sciences ethical committee at the University of Pretoria. All subjects gave written informed consent in accordance with the Declaration of Helsinki. Parasite proliferation was monitored microscopically using Giemsa stained smears. Synchronized ring stage parasites (>95%) were obtained using a 5% D-sorbitol (Sigma Aldrich) treatment. […] Gametocyte cultures were kept stationary under 90% N2, 5% CO2, and 5% O2 atmospheric conditions at 37°C and treated with 50 mM N-acetyl-glucosamine (NAG) to eliminate residual invasion of asexual parasites.
(§4) Working solutions of the derivatives were prepared from a 10 mM stock solution in 100% DMSO in supplemented RPMI 1640 media containing Albumax II with a final DMSO concentration of <0.1%, previously determined as being non-toxic to intraerythrocytic asexual parasites and gametocytes. Dose responses were assayed using a two-fold serial drug dilution on in vitro >95% ring stage intraerythrocytic P. falciparum parasites at 37°C under 90% N2, 5% CO2, and 5% O2 atmospheric conditions, detecting both parasite lactate dehydrogenase (pLDH) activity as a metabolic marker following a 48 h drug exposure (1.5–2% parasitemia and 2% hematocrit; Makler et al., [1993]) and SYBR Green I fluorescence as proliferative marker following a 96 h drug exposure (1% parasitemia and 1% hematocrit). […] Data analysis was performed using GraphPad Prism 7.

P. falciparum Dd2 [15] = experiment: as above; assay type: cell-based; details: Plasmodium falciparum, pLDH, Dd2 CQ, pyrimethamine resistant
Experimental: as §4

P. falciparum K1 [16] = experiment: Proliferative (SYBR Green I) assay, asexual parasites, 96 h; assay type: cell-based; details: Plasmodium falciparum, ±SEM
Experimental: as §3, §4

P. falciparum NF54 [17] = experiment: as above; assay type: cell-based; details: Plasmodium falciparum, ±SEM
Experimental: as §3, §4

P. falciparum W2 [18] = experiment: as above; assay type: cell-based; details: Plasmodium falciparum, ±SEM
Experimental: as §3, §4

Cytotoxicity, MTT assay = assay type: cell-based; details: Chinese hamster, CHO cells
Experimental: (§5) Cytotoxicity (EC50) was determined against Chinese hamster ovarian (CHO) using a 3-(4,5-dimethylthiazol-2-yl)-2,5-diphenyltetrazolium bromide (MTT) assay and hepatocellular carcinoma cells (HepG2) using the Cytoselect LDH cytotoxicity assay kit (Cell Biolabs).

[19] = Cytotoxicity, Cytoselect LDH cytotoxicity assay kit; assay type: cell-based; details: human, HepG2 cells
Experimental: as §5

[20] = test system: P. falciparum NF54 early stage gametocytes (>90% stage I–III); experiment: Gametocytocidal luciferase reporter assay, early stage, 48 h; assay type: cell-based; details: Plasmodium falciparum, NF54, 48 h, read-out: Early Stage (EG, Luc 48 h) IC50
Experimental: as §3
(§6) Gametocytocidal activity was determined using the luciferase reporter line (Reader et al., [2015]) to derive dose responses with two-fold serial drug dilutions for 48 h against early stage gametocytes (day 5 post-induction population, >90% stage I–III) and 10-fold serial drug dilutions for 72 h against late stage gametocytes (day 10 post-induction population, >90% late stage IV–V) (2% gametocytemia, 2% hematocrit), at 37°C under 90% N2, 5% CO2, and 5% O2 atmospheric conditions.

[21] = test system: P. falciparum NF54 late stage gametocytes (>90% stage IV and V); experiment: Gametocytocidal luciferase reporter assay, late stage, 72 h; assay type: cell-based, Plasmodium falciparum; details: Plasmodium falciparum, NF54, 72 h, read-out: Late Stage (LG, Luc 72 h) IC50, >90% stage IV and V gametocytes, ±SEM
Experimental: as §3, §6

[22] = Plasmodium berghei, two biological replicates listed in one cell
[23] = Plasmodium berghei, HepG2, 48 h, liver stage, HepG2 host cells, luciferase after 48 h, ±SD, read-out: P. berghei sporozoites IC50
[24] = Plasmodium berghei, two biological replicates listed in one cell, read-out: P.berghei-Luciferase Liver Stage Bioluminescence Assay: IC50
[25] = read-out: Cytotoxicity EC50 CHO, MTT assay, ref Coertzen et al. (2018)

Compound	Emax [1, 22] [%]	IC50 [1, 23] [nM]	IC50 [1, 24] [nM]	IC50 at 72 h [2] [nM]	EC50 at 72 h [2] [nM]	IC50 (P. falciparum W2 [3]) [nM]	IC90 (P. falciparum W2 [3]) [nM]	susceptibility of ARC08-22 (4G) clone (in words) [4]	IC50 (P. falciparum NF54 [6]) [nM]	IC50 (P. falciparum Dd2 [7]) [nM]	IC50 (P. falciparum NF54 [8]) [nM]	IC50 (P. falciparum K1 [9]) [nM]	IC50 (P. falciparum W2 [10]) [nM]	IC50 [11] [nM]	IC50 [12] [nM]	EC50 [13, 25] [nM]	other results
C[C@H]1[C@H](N2CCSCC2)O[C@@H]2O[C@@]3(C)CC[C@H]4[C@H](C)CC[C@@H]1[C@@]24OO3 [Artemiside 7, artemiside]	98.1	81.3 ± 9.62	74.5	> 25000	> 25000	2.21 ± 0.42	4.28 ± 0.25	no indication of reduced susceptibility	6 ± 1.8	8.2 ± 1.4	1.11 ± 0.17	1.6 ± 0.4	1.75 ± 0.27	16.4 ± 1	1.5 ± 0.5	> 271000	inhibition at 5 µM ([1]; Plasmodium berghei, Conc. 5 μM, read-out: P. berghei sporozoites Maximum inhibition %): 99 ± 1.34%; IC50 ([1]; two biological replicates listed in one cell, listed as 7 Artemiside (GC008), read-out: P.berghei-Luciferase Liver Stage Bioluminescence Assay: IC50): 88.1 nM; HepG2 cytotoxicity IC50 (in words) (HepG2 cells; at 25 μM (artemiside 7) and 50 μM (artemisone 8)): no measurable IC50 values; IC50 (HepG2 cells): > 25000 nM; HepG2 Cytotoxicity Bioluminescence Assay: Maximum measured (%) (HepG2 cells; listed as 7 Artemiside (GC008)): 30.4% and 36.5%; susceptibility of PL08-009 (5C) clone (in words) [5]: no indication of reduced susceptibility
CN(C)c1ccc2nc3ccc(=[N+](C)C)cc-3sc2c1 [MB, methylene blue]									0.3 ± 0.8	12.6 ± 4	5 ± 0.8	6.45 ± 0.3	5.13 ± 0.31	95 ± 11.3	143 ± 16.7		EC50 [13]: 52600 ± 4500 nM
CC1CCC2C(C)C(Nc3ccc(F)cc3)OC3OC4(C)CCC1C32OO4 (centres unmarked) [Arylamine 12]						4.76 ± 0.38	8.51 ± 0.34		7.8 ± 1.9	11.1 ± 1	1.3 ± 0.6	0.64 ± 0.1	3 ± 1	38.2 ± 9	16.4 ± 6.38	2900 ± 1400	
C[C@H]1[C@H](N2CCN(C(=O)c3ccc(C(F)(F)F)cc3)CC2)O[C@@H]2O[C@@]3(C)CC[C@H]4[C@H](C)CC[C@@H]1[C@@]24OO3 [Compound 27]	105	168 ± 55.2	129	8910	7020	0.21 ± 0.04	0.41 ± 0.08	no indication of reduced susceptibility									IC50 (P. falciparum NF54 [14]): 0.49 ± 0.04 nM; IC50 (P. falciparum Dd2 [15]): 13.2 ± 9.3 nM; IC50 (P. falciparum K1 [16]): 3.5 ± 2.4 nM; IC50 (P. falciparum NF54 [17]): 3.4 ± 0.4 nM; IC50 (P. falciparum W2 [18]): 3 ± 0.4 nM; EC50 (Cytotoxicity, MTT assay): 150000 nM; EC50 [19]: 136 nM; IC50 [20]: 43.7 ± 5.1 nM; IC50 [21]: 2.8 ± 1.8 nM; inhibition at 10 µM ([1]; Plasmodium berghei, Conc. 10 μM, read-out: P. berghei sporozoites Maximum inhibition %): 108 ± 4.24%; IC50 ([1]; two biological replicates listed in one cell, listed as 27 (WHN-15), read-out: P.berghei-Luciferase Liver Stage Bioluminescence Assay: IC50): 207 nM; HepG2 Cytotoxicity Bioluminescence Assay: Maximum measured (%) (HepG2 cells; listed as 27 (WHN-15)): 78.3% and 80.2%; IC50 (HepG2 cells; listed as 27 (WHN-15)): 5120 nM
CC1CCC2C(C)C(N3CCNCC3)OC3OC4(C)CCC1C32OO4 (centres unmarked) [DHA-piperazine 9]									3.2 ± 1.4	1.7 ± 0.2	3.1 ± 0.4	1.9 ± 0.5	1.4 ± 0.7	54.9 ± 5.11	25.7 ± 17.5		
CC1CCC2C(C)C(N3CCN(C(=O)Nc4ccccc4)CC3)OC3OC4(C)CCC1C32OO4 (centres unmarked) [Phenylurea 10]						0.12 ± 0.03	0.2 ± 0.03		1.3 ± 0.8	7.5 ± 0.4	4.7 ± 1.5	2.9 ± 0.6	1.7 ± 0.5	83 ± 2		2400 ± 1000	
